Test results taken from patent US20160051706A1, “PROCESS FOR PRODUCING A COMPLEX OF A LANTHANIDE WITH A MACROCYCLIC LIGAND” (AGFA HEALTHCARE, priority 2013, published 2016).
Values joined by “and” are separate entries in the source; they are usually repeats but may differ in a detail not shown here. Equal entries are not always repeated.

How the values were obtained:
[1] = LD50 better than for free DOTA; cited from earlier work
[2] = Moisture content of DOTA (Karl Fischer) over time at controlled relative humidity; assay type: physicochemical; details: Temp. 20 ± 2° C.
Experimental: The measurement of the moisture content in DOTA is performed as described in the semi-micro method of Karl Fischer (Fischer, Karl-Pharm. Eur. Section 2.5.12). This section and the next section illustrates how the moisture content in a batch of a macrocyclic ligand changed when the product was exposed to different conditions of relative humidity. The moisture content in the samples was measured using methods known to those skilled in the art. In this example, the measurement of the content of moisture in DOTA was performed as described above. Two samples of DOTA were kept in conditions of relative humidity (RH)=30+5% at a temperature of Temp=20+2° C. From these samples, small samples were taken at different times (T0=beginning of the experiment; T30=T0+30 min; T90=T0+90 min; and […]=T0+300 min) and the moisture content was measured as described above. Each experiment (Exp.) was performed twice and the average of each (Ind.) was determined (Avg.). This measurement, as the previous one, illustrated how the moisture content in a batch of a macrocyclic ligand was affected by the environmental relative humidity conditions. Therefore, the previous experiments were repeated in the same conditions but at a RH=75+5%. Again, each experiment (Exp.) was performed twice and the average of each (Ind.) was determined (Avg.).

SMILES	LD50 of Na2 [Ca-DOTA] relative to free DOTA [1]	Moisture content DOTA, Avg. ([2]; T0, RH 30 ± 5%)	Moisture content DOTA, Ind. ([2]; T0, RH 30 ± 5%)	Moisture content DOTA, Avg. ([2]; T0, RH 75 ± 5%)	Moisture content DOTA, Ind. ([2]; T0, RH 75 ± 5%)	Moisture content DOTA, Avg. ([2]; T30 (T0+30 min), RH 30 ± 5%)	Moisture content DOTA, Ind. ([2]; T30 (T0+30 min), RH 30 ± 5%)	Moisture content DOTA, Avg. ([2]; T30 (T0+30 min), RH 75 ± 5%)	Moisture content DOTA, Ind. ([2]; T30 (T0+30 min), RH 75 ± 5%)	Moisture content DOTA, Avg. ([2]; T90 (T0+90 min), RH 30 ± 5%)	Moisture content DOTA, Ind. ([2]; T90 (T0+90 min), RH 30 ± 5%)	Moisture content DOTA, Avg. ([2]; T90 (T0+90 min), RH 75 ± 5%)	Moisture content DOTA, Ind. ([2]; T90 (T0+90 min), RH 75 ± 5%)	Moisture content DOTA, Avg. ([2]; T300 (T0+300 min), RH 30 ± 5%)	Moisture content DOTA, Ind. ([2]; T300 (T0+300 min), RH 30 ± 5%)	Moisture content DOTA, Avg. ([2]; T300 (T0+300 min), RH 75 ± 5%)	Moisture content DOTA, Ind. ([2]; T300 (T0+300 min), RH 75 ± 5%)
O=C([O-])CN1CCN(CC(=O)[O-])CCN(CC(=O)[O-])CCN(CC(=O)[O-])CC1.[Ca+2].[Na+].[Na+] [Na2 [Ca-DOTA]]	at least 40 times	–	–	–	–	–	–	–	–	–	–	–	–	–	–	–	–
O=C(O)CN1CCN(CC(=O)O)CCN(CC(=O)O)CCN(CC(=O)O)CC1 [DOTA, 1,4,7,10-tetraazacyclododecane-1,4,7,10-tetraacetic acid]	–	4.929 wt. % and 5.25 wt. %	5.150 wt. % and 4.941 wt. % and 4.929 wt. % and 5.346 wt. %	4.94 wt. % and 5.25 wt. %	5.150 wt. % and 4.941 wt. % and 4.929 wt. % and 5.346 wt. %	4.98 wt. % and 6.20 wt. %	6.247 wt. % and 4.944 wt. % and 5.020 wt. % and 6.154 wt. %	6.71 wt. % and 6.65 wt. %	6.851 wt. % and 6.734 wt. % and 6.694 wt. % and 6.449 wt. %	5.00 wt. % and 6.12 wt. %	6.170 wt. % and 5.038 wt. % and 4.954 wt. % and 6.062 wt. %	7.34 wt. % and 6.88 wt. %	6.789 wt. % and 7.475 wt. % and 7.200 wt. % and 6.962 wt. %	5.15 wt. % and 6.19 wt. %	6.268 wt. % and 5.178 wt. % and 5.114 wt. % and 6.106 wt. %	5.86 wt. % and 4.36 wt. %	4.609 wt. % and 5.914 wt. % and 5.813 wt. % and 4.111 wt. %
